This experiment addresses T1, Human GLP-1 receptor stably expressing cells (hGLP-1R/CHO-K1 cells) (Homo sapiens, UniProt P43220).
T1 construct: expressed in transfected cells
Put plainly: Measurement of GLP-1 receptor agonist activity (cAMP assay). Type of experiment: cell-based. The conditions noted are these: for Emax: CHO-K1, maximum effect, cAMP with 2 nM human GLP-1 (7-36) = 100%, DMSO only = 0%, read-out: Emax; for EC50: increase in cAMP concentration in hGLP-1R/CHO-K1 cells, 37° C. 1 hour. The essentials:
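hGLP-1R/CHO-K1 cells (cryopreserved) incubated with compound and forskolin in HBSS with 0.1% BSA, IBMX and RO20-1724, 1 h at 37° C; cAMP read by HTRF. EC50 and Emax from cAMP rise, normalised to 2 nM human GLP-1 (7-36) (100%) and DMSO (0%).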
For orientation: cAMP levels reflect the balance of adenylyl cyclase and phosphodiesterase activity.

T1 sequence (P43220 24-463): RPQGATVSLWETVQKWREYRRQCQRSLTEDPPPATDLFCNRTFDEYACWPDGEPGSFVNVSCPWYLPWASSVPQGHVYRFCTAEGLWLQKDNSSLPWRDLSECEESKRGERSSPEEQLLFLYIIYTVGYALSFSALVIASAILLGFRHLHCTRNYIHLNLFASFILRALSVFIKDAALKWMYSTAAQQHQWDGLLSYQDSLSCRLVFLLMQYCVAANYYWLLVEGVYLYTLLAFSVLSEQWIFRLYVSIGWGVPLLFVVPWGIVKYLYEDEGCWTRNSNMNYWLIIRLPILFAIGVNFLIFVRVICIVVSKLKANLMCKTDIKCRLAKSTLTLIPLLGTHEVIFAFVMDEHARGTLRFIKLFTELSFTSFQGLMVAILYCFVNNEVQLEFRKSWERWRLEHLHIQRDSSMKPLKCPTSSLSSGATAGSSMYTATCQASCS

As to `COc1cc(C(=O)O)cc2c1nc(CN1CCc3cc(C(F)(F)F)c(NCc4ccc(Cl)cc4)nc3[C@@H]1C)n2C[C@@H]1CCO1` [Compound I-167], the Emax was 122% and the EC50 stood at 0.052 nM.
In the same order, the values of `C[C@H]1c2nc(NCc3ccc(Cl)cc3)c(C(F)(F)F)cc2CCN1Cc1nc2c(Cl)cc(C(=O)O)cc2n1C[C@@H]1CCO1` [Compound I-168] are 104% and 0.193 nM.
With `C[C@H]1c2nc(NCc3ccc(Cl)cc3)c(C(F)(F)F)cc2CCN1Cc1nc2c(F)cc(C(=O)O)cc2n1C[C@@H]1CCO1` [Compound I-169], the Emax was 109% and the EC50 stood at 0.191 nM.
On to `COc1cc(C(=O)O)cc2c1nc(CN1CCc3cc(C(F)(F)F)c4c(c3[C@@H]1C)O[C@@](C)(c1ccc(Cl)cc1F)O4)n2C[C@@H]1CCO1` [Compound I-170], for which the Emax came out at 105% and the EC50 came out at 0.243 nM.
`COc1cc(C(=O)O)cc2c1nc(CN1CCc3cc(C(F)(F)F)c(NCc4c(F)cc(Cl)cc4F)nc3[C@@H]1C)n2C[C@@H]1CCO1` [Compound I-171]: the Emax was found to be 124% and the 50% effective concentration (EC50) worked out at 0.0152 nM.
For `C[C@H]1c2nc(NCc3c(F)cc(Cl)cc3F)c(C(F)(F)F)cc2CCN1Cc1nc2c(Cl)cc(C(=O)O)cc2n1C[C@@H]1CCO1` [Compound I-172], in that order: 106% and 0.0353 nM.
For `C[C@H]1c2nc(NCc3c(F)cc(Cl)cc3F)c(C(F)(F)F)cc2CCN1Cc1nc2c(F)cc(C(=O)O)cc2n1C[C@@H]1CCO1` [Compound I-173], in that order: 99.7% and 0.0889 nM.
`C[C@H]1c2nc(OCc3ccc(Cl)cc3F)c(C(F)(F)F)nc2CCN1Cc1nc2ccc(C(=O)O)cc2n1C[C@@H]1CCO1` [Compound I-174]: the Emax came to 96.3% and the EC50 was 0.174 nM.
In the case of `C[C@H]1c2nc(NCc3cc(F)c(Cl)cc3F)c(C(F)(F)F)cc2CCN1Cc1nc2c(F)cc(C(=O)O)cc2n1C[C@@H]1CCO1` [Compound I-175], the Emax turned out to be 107% and the concentration for a half-maximal effect (EC50) was 0.0831 nM.
For `C[C@H]1c2nc(NCc3cc(F)c(Cl)cc3F)c(C(F)(F)F)cc2CCN1Cc1nc2c(Cl)cc(C(=O)O)cc2n1C[C@@H]1CCO1` [Compound I-176], the maximum response (Emax) is 112% and it took 0.0693 nM to reach a half-maximal effect (EC50).
For `COc1cc(C(=O)O)cc2c1nc(CN1CCc3cc(C(F)(F)F)c(NCc4cc(F)c(Cl)cc4F)nc3[C@@H]1C)n2C[C@@H]1CCO1` [Compound I-177], in that order: 113% and 0.0195 nM.
In the same order, the values of `C[C@H]1c2nc(OCc3ccc(Cl)cc3F)c(C(F)(F)F)cc2CCN1Cc1nc2c(-c3cnn(C)c3)cc(C(=O)O)cc2n1C[C@@H]1CCO1` [Compound I-178] are 99.7% and 12.4 nM.
In the same order, the values of `Cc1cc(-c2cc(C(=O)O)cc3c2nc(CN2CCc4cc(C(F)(F)F)c(OCc5ccc(Cl)cc5F)nc4[C@@H]2C)n3C[C@@H]2CCO2)on1` [Compound I-179] are 96.3% and 1.46 nM.
As for `C[C@H]1c2nc(OCc3ccc(Cl)c4ccoc34)c(C#N)cc2CCN1Cc1nc2c(Cl)cc(C(=O)O)cc2n1C[C@@H]1CCO1` [Compound I-180], the Emax was found to be 111% and the EC50 turned out to be 0.28 nM.
With `C[C@H]1c2nc(OCc3ccccc3Cl)c(C#N)cc2CCN1Cc1nc2c(Cl)cc(C(=O)O)cc2n1C[C@@H]1CCO1` [Compound I-181], the Emax was determined as 120% and the EC50 is 0.531 nM.
In the same order, the values of `C[C@H]1c2nc(OCc3ccc(F)cc3Cl)c(C#N)cc2CCN1Cc1nc2c(Cl)cc(C(=O)O)cc2n1C[C@@H]1CCO1` [Compound I-182] are 119% and 0.173 nM.
For `C[C@H]1c2nc(OCc3c(F)cc(F)cc3F)c(C#N)cc2CCN1Cc1nc2c(Cl)cc(C(=O)O)cc2n1C[C@@H]1CCO1` [Compound I-183], in that order: 135% and 0.151 nM.
`C[C@H]1c2nc(OCc3ccc(Cl)cc3F)c(C#N)cc2CCN1Cc1nc2c(Cl)cc(C(=O)O)cc2n1C[C@@H]1CCO1` [Compound I-184]: the Emax is 118% and the response was half-maximal at 0.073 nM (EC50).
`C[C@H]1c2nc(OCc3c(F)cc(Cl)cc3F)c(C#N)cc2CCN1Cc1nc2c(Cl)cc(C(=O)O)cc2n1C[C@@H]1CCO1` [Compound I-185]: the Emax was 122% and the EC50 came to 0.0569 nM.
With `C[C@H]1c2nc(OCc3ccc(OC(F)F)cc3F)c(C#N)cc2CCN1Cc1nc2c(Cl)cc(C(=O)O)cc2n1C[C@@H]1CCO1` [Compound I-186], the Emax amounted to 123% and it took 0.466 nM to reach a half-maximal effect (EC50).
In the same order, the values of `COc1cc(Cl)ccc1COc1nc2c(cc1C#N)CCN(Cc1nc3c(Cl)cc(C(=O)O)cc3n1C[C@@H]1CCO1)[C@H]2C` [Compound I-187] are 137% and 0.04 nM.
Regarding `C[C@H]1c2nc(OCc3cc(F)c(Cl)cc3F)c(C#N)cc2CCN1Cc1nc2c(Cl)cc(C(=O)O)cc2n1C[C@@H]1CCO1` [Compound I-188], the Emax came out at 120% and a half-maximal response (EC50) required 0.119 nM.
For `C[C@H]1c2nc(OCc3ccc(Cl)cc3)c(C#N)cc2CCN1Cc1nc2c(Cl)cc(C(=O)O)cc2n1C[C@@H]1CCO1` [Compound I-189], in that order: 124% and 0.222 nM.
In the case of `C[C@H]1c2nc(OCc3ccc(Cl)cc3F)c(C(F)(F)F)cc2CCN1Cc1nc2c(-c3cccnc3)cc(C(=O)O)cc2n1C[C@@H]1CCO1` [Compound I-190], the Emax was 93.3% and the EC50 is 4.29 nM.
For `C[C@H]1c2nc(NCc3ncc(Cl)cc3F)c(C(F)(F)F)cc2CCN1Cc1nc2c(F)cc(C(=O)O)cc2n1C[C@@H]1CCO1` [Compound I-191], in that order: 114% and 0.266 nM.
For `C[C@H]1c2nc(NCc3ccc(C#N)cc3F)c(C(F)(F)F)cc2CCN1Cc1nc2c(F)cc(C(=O)O)cc2n1C[C@@H]1CCO1` [Compound I-193], in that order: 110% and 0.211 nM.
In the case of `C[C@H]1c2nc(NCc3ccc(C#N)cc3F)c(C(F)(F)F)cc2CCN1Cc1nc2c(Cl)cc(C(=O)O)cc2n1C[C@@H]1CCO1` [Compound I-194], the maximal effect (Emax) came to 103% and the concentration giving a half-maximal response (EC50) is 0.137 nM.
For the molecule `COc1cc(C(=O)O)cc2c1nc(CN1CCc3cc(C(F)(F)F)c(NCc4ccc(C#N)cc4F)nc3[C@@H]1C)n2C[C@@H]1CCO1` [Compound I-195], the maximum response (Emax) was 123% and a half-maximal response (EC50) required 0.0514 nM.
In the same order, the values of `C[C@H]1c2nc(NCc3ccc(Cl)cn3)c(C(F)(F)F)cc2CCN1Cc1nc2c(F)cc(C(=O)O)cc2n1C[C@@H]1CCO1` [Compound I-196] are 108% and 0.611 nM.
As for `C[C@H]1c2nc(NCc3ccc(Cl)cn3)c(C(F)(F)F)cc2CCN1Cc1nc2c(Cl)cc(C(=O)O)cc2n1C[C@@H]1CCO1` [Compound I-197], the Emax came to 111% and the EC50 is 0.345 nM.

What is called Emax is the maximal effect, on the per cent scale that the assay sets. The EC50 is the concentration at which the effect is half-maximal. High values mean a need for much substance, low ones an effect from little substance.

Values taken from patent publication US20260097037A1, “FUSED RING COMPOUND HAVING GLP-1 RECEPTOR AGONIST EFFECT” (Shionogi & Co., Ltd., priority 2022, published 2026).
